Experimental data published in patent EP1282604B1, “SUBSTITUTED CAPROLACTAM CARBONATES AND ETHERS AND THEIR USE AS ANTI-TUMOR AGENTS” (Novartis AG, priority 2000, dated 2001).
Like-named read-outs stand apart in the source and are kept apart here.

Key:
[1] = test system: MDA-MB-435 human breast carcinoma; assay: Anchorage Dependent Growth Monolayer Assay (ADGMA), MTS readout; format: cell-based; details: 3-day exposure, MDA-MB-435 cells, read-out: IC50 values (average ± S.D.) MDA-MB-435
Description: (§1) As indicated above, all of the compounds of formula I, and their corresponding pharmaceutically acceptable acid addition salts, are anti-tumor agents and are, therefore, useful in inhibiting the growth of various lymphomas, sarcomas, carcinomas, myelomas, and leukemia cell lines. […] This assay was adapted from the 60 cell line assay used by the National Cancer Institute (NCl) with the following modifications: 1) cell lines representative for the important tumor types, viz., MDA-MB-435 human breast, A549 non-small cell lung, H1299 lung, HCT-116 colon and PC-3 prostate carcinomas, and U2OS osteosarcomas were utilized; and 2) a tetrazolium derivative, viz., 3-(4,5-dimethylthiazol-2-yl)-5-(3-carboxymethoxyphenyl)-2-(4-sulfophenyl)-2H-tetrazolium, inner salt (MTS), was utilized to determine cell density.
(§2) The ADGMA compares the number of viable cells following a 3-day exposure to a test compound relative to a number of cells present at the time the test compound was added. […] The absorbance at 490 nm (A490) of the formazan derivative is proportional to the number of viable cells. The IC50 for a test compound is the concentration of compound required to reduce the final cell number to 50% of the final control cell number. If cell proliferation is inhibited, the assay further defines compounds as cytostatic (cell number after 3-day compound incubation >cell number at time of compound addition) or cytotoxic (cell number after 3-day compound incubation <cell number at time of compound addition).
(§3) The MDA-MB-435 human breast carcinoma and the A549 non-small cell lung carcinoma lines were obtained from the American Type Culture Collection (ATCC) and used between passages 4-20 following thawing. MDA-MB-435 human breast carcinoma and A549 non-small cell lung carcinoma cells were maintained and plated in DME/F12 medium containing 10% fetal bovine serum, 15 mM HEPES (pH=7.4), 100 units/mL penicillin, and 100 µg/mL streptomycin.
(§4) Cell lines are trypsinized and counted using a Coulter counter to determine plating densities. Cells are then plated in their respective maintenance media (100 µL/well) in 96 well plates at the following densities: MDA-MB-435 and U2OS, 3,000 cells/well; A549 and HCT-116, 700 cells/well; H1299, 1,000 cells/well; and PC-3, 2500 cells/well. The number of cells plates as determined in preliminary experiments, results in cell densities of 75-90% of confluency by 4 days after plating. Initial cell densities, assayed one day after plating, are roughly 0.15-0.20 absorbance units greater than the media blank. Ninety-six well plates are seeded on day 0 and the test compounds are added on day 1. A control plate is created for each cell line that receives media only in row A and cells in row B. One day following plating, test compounds are added (in a final volume of 100 µL) to the test plates. Control plates receive 10 µL MTS mixture (prepared fresh on day of addition to cell plates at a ratio of 10 µL of a 0.92 mg/mL solution of PMS to a 190 µL of a 2 mg/mL solution of MTS) and 100 µL media. A490 of control plates is read 4 h after MTS addition to determine initial cell density values for each cell line. Three days after addition of test compound, 10 µL/well of MTS mixture is added to the test plates and A490 is read 4 h later. A490 values for wells containing cells are corrected for media absorbance, then normalized to initial density readings to determine percent net growth. IC50 values are determined from graphs of percent net growth as a function of compound concentration. Percent net growth is calculated as (Cell + Drug A490 - Initial A490/Cell + Drug Vehicle A490 - Initial A490) x 100%.

[2] = test system: A549 non-small cell lung carcinoma; assay: as above; format: cell-based, human; details: 3-day exposure, A549 cells, read-out: IC50 values (average ± S.D.) A549
Description: as §1, §2, §3, §4

H1299 lung carcinoma = assay: as above; format: cell-based; details: 3-day exposure, H1299 cells, read-out: IC50 values (average ± S.D.) H1299
Description: as §1, §2
(§5) The H1299 lung, HCT-116 colon, and PC-3 prostate carcinoma cell lines, and U2OS osteosarcoma cell line were obtained from the American Type Culture Collection (ATCC) and used between passages 4-20 following thawing. H1299 and HCT-116 cells were maintained in RPMI 1640 containing 10% FBS, 100 units/mL penicillin and 100 µg/mL streptomycin; PC-3 cells were maintained in Kahn's Modification containing 10% FBS, 100 units/mL penicillin and 100 µg/mL streptomycin; and U2OS cells were maintained in DMEM containing 10% FBS, 100 units/mL penicillin and 100 µg/mL streptomycin.
as §4

HCT-116 colon carcinoma = assay: as above; format: cell-based; details: 3-day exposure, HCT-116 cells, read-out: IC50 values (average ± S.D.) HCT-116
Description: as §1, §2, §5, §4

U2OS osteosarcoma = assay: as above; format: cell-based; details: 3-day exposure, U2OS cells, read-out: IC50 values (average ± S.D.) U2OS
Description: as §1, §2, §5, §4

A549 tumor xenografts = assay: Human tumor xenograft growth inhibition in athymic nude mice; format: in vivo; details: 5X/week for 2 weeks; for Δ MTV / %T/C: recorded on day 24; for %T/C: * = p<0.05
Procedure: (§6) Utilizing this model, one can measure the ability of test compounds to inhibit the growth of human tumor xenografts growing subcutaneously (s.c.) in athymic nude mice. The histologic tumor type employed was MDA-MB-435 breast carcinoma for Ex.1 and 7 and A549 non-small cell lung carcinoma for Ex. 1-3.
A549 non-small cell lung carcinoma: Treatments were started 17 d post-implantation (1 x 10^7 cells/mouse), when a mean tumor volume of approximately 120 mm^3 was reached. Ex. 1-3 were administered iv on days 17-21 (followed by 2 d rest, then a second cycle of treatment on days 24-28). Total daily doses of 10 or 30 µmol/kg were administered as a single injection. Data in this table were recorded on day 24, 3 d after the last treatment of the first cycle. An asterisk (*) indicates p < 0.05 using a one-tailed Student's t-Test.
(§7) Toxicity was monitored by recording average group body weights twice weekly, and by daily observation of general health. Efficacy was monitored by taking measurements of tumor length, width, and depth weekly using digital calipers coupled to automated data collectors. Mean tumor volume (MTV) at initiation of therapy was subtracted from final MTV in order to express the actual tumor growth during treatment (A MTV). Anti-tumor activity was expressed as %T/C (A MTV of treated group ÷ Δ MTV of control group X100%). Statistical significance was evaluated using a one-tailed Student's t-test (p<0.05).

[3] = test system: MDA-MB-435 tumor xenografts; assay: as above; format: in vivo; details: 3X/week for 3 weeks; for %T/C: * = p<0.05
Procedure: as §6
MDA-MB-435 human breast carcinoma: Treatments were started 15 d post implantation (3 x 10^6 cells/mouse), when a mean tumor volume of approximately 45 mm^3 was reached. Ex.1 and 7 were administered iv at three times per week for 3 weeks (days 15, 17, 20, 22, 24, 27, 29, and 31), at 3.3, 10, and 33 µmol/kg. Doxorubicin was administered iv at 2 mg/kg using the same schedule. Each data point represents tumor growth (mean ± SEM), or body weight (mean), with an initial group size of n = 8, from a representative experiment performed twice. An asterisk (*) indicates p < 0.05 using a one-tailed Student's t-test.
as §7

Compound `CO[C@@H](C(=O)N[C@H]1CC[C@@H](OC(=O)OCCc2ccccc2)CNC1=O)[C@H](O)[C@@H](O)[C@H](O)/C=C/C(C)(C)C` [Ex. 3, (2R, 3R, 4S, 5R, 6E)-3,4,5-trihydroxy-2-methoxy-8,8-dimethyl-N-[(3S, 6R)-hexahydro-2-oxo-6-([[2-phenylethoxy]carbonyl]oxy)-2H-azepin-3-yl]non-6-enonamide] has an IC50 ([1]; Homo sapiens, 72 h) of 80 ± 30 nM, an IC50 ([2]; Homo sapiens, 72 h) of 132 ± 20 nM and an IC50 (H1299 lung carcinoma; Homo sapiens, NCI-H1299, 72 h) of 330 ± 270 nM. For the same compound, the IC50 (HCT-116 colon carcinoma; Homo sapiens, 72 h) was 160 ± 30 nM, the IC50 (U2OS osteosarcoma; Homo sapiens, 72 h) was 310 ± 40 nM and the Dead/Total (A549 tumor xenografts; 10 µmol/kg iv daily) was 0/8. For the same compound, the “Δ MTV” value (A549 tumor xenografts; 10 µmol/kg iv daily) was 106 mm^3, the “%T/C” value (A549 tumor xenografts; 10 µmol/kg iv daily) was 82% and the Dead/Total (A549 tumor xenografts; 30 µmol/kg iv daily) was 0/8. The “Δ MTV” value (A549 tumor xenografts; 30 µmol/kg iv daily) was 55 mm^3 and the “%T/C” value (A549 tumor xenografts; 30 µmol/kg iv daily) was 42* %.
In the case of `CO[C@@H](C(=O)N[C@H]1CC[C@@H](OC(=O)OCC(C)(C)C)CNC1=O)[C@H](O)[C@@H](O)[C@H](O)/C=C/C(C)(C)C` [Ex. 5, (2R, 3R, 4S, 5R, 6E)-3,4,5-trihydroxy-2-methoxy-8,8-dimethyl-N-[(3S, 6R)-hexahydro-2-oxo-6-([[2,2-dimethylpropoxy]carbonyl]oxy)-2H-azepin-3-yl]non-6-enonamide], the IC50 ([1]; Homo sapiens, 72 h) is reported as 120 ± 20 nM, the IC50 ([2]; Homo sapiens, 72 h) is reported as 138 ± 8 nM and the IC50 (H1299 lung carcinoma; Homo sapiens, NCI-H1299, 72 h) is reported as 360 ± 120 nM. It also gave an IC50 (HCT-116 colon carcinoma; Homo sapiens, 72 h) of 270 ± 100 nM and an IC50 (U2OS osteosarcoma; Homo sapiens, 72 h) of 620 ± 160 nM.
For `CCCCCOC(=O)O[C@@H]1CC[C@H](NC(=O)[C@H](OC)[C@H](O)[C@@H](O)[C@H](O)/C=C/C(C)(C)C)C(=O)NC1` [Ex. 2, (2R, 3R, 4S, 5R, 6E)-3,4,5-trihydroxy-2-methoxy-8,8-dimethyl-N-[(3S, 6R)-hexahydro-2-oxo-6-([[pentyloxy]carbonyl]oxy)-2H-azepin-3-yl]non-6-enonamide], the IC50 [1] was 70 ± 20 nM, the IC50 [2] was 117 ± 20 nM and the IC50 (H1299 lung carcinoma) was 210 ± 170 nM. For the same compound, the IC50 (HCT-116 colon carcinoma) was 170 ± 100 nM, the IC50 (U2OS osteosarcoma) was 90 ± 30 nM and the Dead/Total (A549 tumor xenografts; 10 µmol/kg iv daily) was 0/8. For the same compound, the “Δ MTV” value (A549 tumor xenografts; 10 µmol/kg iv daily) was 42 mm^3, the “%T/C” value (A549 tumor xenografts; 10 µmol/kg iv daily) was 32* % and the Dead/Total (A549 tumor xenografts; 30 µmol/kg iv daily) was 0/8. The “Δ MTV” value (A549 tumor xenografts; 30 µmol/kg iv daily) was 60 mm^3 and the “%T/C” value (A549 tumor xenografts; 30 µmol/kg iv daily) was 46* %.
For `CCCCCCCCCCCOCC(=O)O[C@@H]1CC[C@H](NC(=O)[C@H](OC)[C@H](O)[C@@H](O)[C@H](O)/C=C/C(C)(C)C)C(=O)NC1` [Ex. 7, (2R, 3R, 4S, 5R, 6E)-3,4,5-trihydroxy-2-methoxy-8,8-dimethyl-N-[(3S, 6R)-hexahydro-2-oxo-6-([[undecyloxy]acetyl]oxy)-2H-azepin-3-yl]non-6-enonamide], the Dead/Total ([3]; 3.3 µmol/kg iv) was 0/8, the “Δ MTV” value ([3]; 3.3 µmol/kg iv) was 165 mm^3 and the “%T/C” value ([3]; 3.3 µmol/kg iv) was 102%. For the same compound, the Dead/Total ([3]; 10 µmol/kg iv) was 0/8, the “Δ MTV” value ([3]; 10 µmol/kg iv) was 103 mm^3 and the “%T/C” value ([3]; 10 µmol/kg iv) was 64%. For the same compound, the Dead/Total ([3]; 33 µmol/kg iv) was 0/8, the “Δ MTV” value ([3]; 33 µmol/kg iv) was 48 mm^3 and the “%T/C” value ([3]; 33 µmol/kg iv) was 30* %.
For `CCCCCCCCCCOC(=O)O[C@@H]1CC[C@H](NC(=O)[C@H](OC)[C@H](O)[C@@H](O)[C@H](O)/C=C/C(C)(C)C)C(=O)NC1` [Ex. 1, (2R, 3R, 4S, 5R, 6E)-3,4,5-trihydroxy-2-methoxy-8,8-dimethyl-N-[(3S, 6R)-hexahydro-2-oxo-6-([[decyloxy]carbonyl]oxy)-2H-azepin-3-yl]non-6-enonamide], the IC50 ([1]; Homo sapiens, 72 h) was 210 ± 140 nM, the IC50 (H1299 lung carcinoma; Homo sapiens, NCI-H1299, 72 h) was 570 ± 220 nM and the IC50 (HCT-116 colon carcinoma; Homo sapiens, 72 h) was 530 ± 350 nM. The IC50 (U2OS osteosarcoma; Homo sapiens, 72 h) was greater than 1000 nM, the Dead/Total ([3]; 3.3 µmol/kg iv) was 0/8 and the “Δ MTV” value ([3]; 3.3 µmol/kg iv) was 132 mm^3. For the same compound, the “%T/C” value ([3]; 3.3 µmol/kg iv) was 74* %, the Dead/Total ([3]; 10 µmol/kg iv) was 0/8 and the “Δ MTV” value ([3]; 10 µmol/kg iv) was 162 mm^3. For the same compound, the “%T/C” value ([3]; 10 µmol/kg iv) was 90%, the Dead/Total ([3]; 33 µmol/kg iv) was 0/8 and the “Δ MTV” value ([3]; 33 µmol/kg iv) was 79 mm^3. The “%T/C” value ([3]; 33 µmol/kg iv) was 44* %, the Dead/Total (A549 tumor xenografts; 10 µmol/kg iv daily) was 0/8 and the “Δ MTV” value (A549 tumor xenografts; 10 µmol/kg iv daily) was 95 mm^3. The “%T/C” value (A549 tumor xenografts; 10 µmol/kg iv daily) was 73%, the Dead/Total (A549 tumor xenografts; 30 µmol/kg iv daily) was 0/8 and the “Δ MTV” value (A549 tumor xenografts; 30 µmol/kg iv daily) was 39 mm^3. The “%T/C” value (A549 tumor xenografts; 30 µmol/kg iv daily) was 30* %.
`CO[C@@H](C(=O)N[C@H]1CC[C@@H](OC(=O)OC2CCCCC2)CNC1=O)[C@H](O)[C@@H](O)[C@H](O)/C=C/C(C)(C)C` [Ex. 6, (2R, 3R, 4S, 5R, 6E)-3,4,5-trihydroxy-2-methoxy-8,8-dimethyl-N-[(3S, 6R)-hexahydro-2-oxo-6-([[cyclohexyloxy]carbonyl]oxy)-2H-azepin-3-yl]non-6-enonamide] was tested, and the IC50 ([1]; Homo sapiens, 72 h) was 350 ± 110 nM, the IC50 ([2]; Homo sapiens, 72 h) was 441 ± 63 nM and the IC50 (H1299 lung carcinoma; Homo sapiens, NCI-H1299, 72 h) was 570 ± 290 nM. The IC50 (HCT-116 colon carcinoma; Homo sapiens, 72 h) was 400 ± 120 nM and the IC50 (U2OS osteosarcoma; Homo sapiens, 72 h) was 770 ± 400 nM.
